From ChEMBL document CHEMBL2074462, “MRP4: A previously unidentified factor in resistance to nucleoside-based antiviral drugs” (Nat Med, 1999)

Target: T1, ATP-binding cassette sub-family C member 4 (Homo sapiens, UniProt O15439)
T1 sequence (O15439 whole entry): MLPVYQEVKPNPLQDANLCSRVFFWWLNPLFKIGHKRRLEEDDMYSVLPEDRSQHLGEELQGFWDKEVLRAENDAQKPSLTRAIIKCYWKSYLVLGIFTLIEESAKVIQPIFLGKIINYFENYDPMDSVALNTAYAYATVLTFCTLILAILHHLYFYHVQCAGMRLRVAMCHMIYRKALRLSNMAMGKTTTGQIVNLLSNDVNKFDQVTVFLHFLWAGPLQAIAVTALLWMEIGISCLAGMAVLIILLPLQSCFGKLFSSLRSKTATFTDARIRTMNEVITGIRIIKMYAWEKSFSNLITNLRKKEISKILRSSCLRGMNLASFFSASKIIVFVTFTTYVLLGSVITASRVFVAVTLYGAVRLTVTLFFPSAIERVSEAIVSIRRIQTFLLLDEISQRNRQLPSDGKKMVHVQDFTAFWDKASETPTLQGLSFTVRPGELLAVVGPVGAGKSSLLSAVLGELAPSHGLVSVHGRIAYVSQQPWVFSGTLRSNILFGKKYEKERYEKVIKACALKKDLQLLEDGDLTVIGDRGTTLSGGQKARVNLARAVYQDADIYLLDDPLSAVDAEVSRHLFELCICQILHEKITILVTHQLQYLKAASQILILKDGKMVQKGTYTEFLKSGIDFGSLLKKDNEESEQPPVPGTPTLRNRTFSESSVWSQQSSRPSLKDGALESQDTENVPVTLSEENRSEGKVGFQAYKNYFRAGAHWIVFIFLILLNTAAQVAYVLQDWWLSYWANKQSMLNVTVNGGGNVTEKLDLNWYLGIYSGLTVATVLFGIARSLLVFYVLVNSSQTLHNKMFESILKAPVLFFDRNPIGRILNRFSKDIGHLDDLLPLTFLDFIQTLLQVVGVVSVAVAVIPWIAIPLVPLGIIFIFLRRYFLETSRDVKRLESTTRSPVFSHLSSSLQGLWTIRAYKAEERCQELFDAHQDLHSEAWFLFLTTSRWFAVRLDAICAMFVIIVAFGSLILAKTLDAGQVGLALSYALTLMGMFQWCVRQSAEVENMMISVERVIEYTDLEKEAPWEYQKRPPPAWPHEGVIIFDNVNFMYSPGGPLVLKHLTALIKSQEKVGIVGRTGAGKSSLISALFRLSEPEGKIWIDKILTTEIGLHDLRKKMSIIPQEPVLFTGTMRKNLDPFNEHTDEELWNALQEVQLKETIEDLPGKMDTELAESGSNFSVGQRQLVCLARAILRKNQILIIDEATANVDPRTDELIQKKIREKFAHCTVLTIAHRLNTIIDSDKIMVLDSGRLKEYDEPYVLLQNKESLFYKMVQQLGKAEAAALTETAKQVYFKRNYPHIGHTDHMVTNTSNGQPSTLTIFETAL
Experiment: TP_TRANSPORTER: efflux in CEM-r1 cells
Type: functional, cell-based

Compound	Activity
Nc1ncnc2c1ncn2CCOCP(=O)(O)O [ADEFOVIR]	substrate [+]
Cc1cn([C@H]2C[C@H](N=[N+]=[N-])[C@@H](COP(=O)(O)O)O2)c(=O)[nH]c1=O [AZIDOTHYMIDINE MONOPHOSPHATE]	substrate [+]
